Measured values as given in patent US20090047246A1, “NOVEL INHIBITORS OF HEPATITIS C VIRUS REPLICATION” (InterMune, Inc., priority 2007, published 2009).

Molecular target: T1, HCV NS3 helicase (Hepatitis C virus genotype 1b, UniProt P26663)
T1 construct: full-length NS3 (1-631), purified at Array BioPharma
Assay: HCV Helicase Prompt FRET Assay (Example A)
Format: biochemical
Conditions: HCV NS3 helicase; tables do not say whether Example A or Example B assay; read-out: IC50 Activity
Method in brief: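 Full-length NS3 (1-631), 5 or 6 nM, preincubated 5 min with compound, then unwinds 50 nM FAM/BHQ-1 duplex substrate with 250 nM capture strand and 300 μM ATP in 25 mM MOPS pH 7.0, 1.5 mM MgCl2, 0.005% Triton X-100, 2% DMSO. Fluorescence (485/535 nm) followed ~30 min at room temperature; IC50 from initial rates by 4- or 5-parameter fit.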

T1 sequence (P26663 1027-1657): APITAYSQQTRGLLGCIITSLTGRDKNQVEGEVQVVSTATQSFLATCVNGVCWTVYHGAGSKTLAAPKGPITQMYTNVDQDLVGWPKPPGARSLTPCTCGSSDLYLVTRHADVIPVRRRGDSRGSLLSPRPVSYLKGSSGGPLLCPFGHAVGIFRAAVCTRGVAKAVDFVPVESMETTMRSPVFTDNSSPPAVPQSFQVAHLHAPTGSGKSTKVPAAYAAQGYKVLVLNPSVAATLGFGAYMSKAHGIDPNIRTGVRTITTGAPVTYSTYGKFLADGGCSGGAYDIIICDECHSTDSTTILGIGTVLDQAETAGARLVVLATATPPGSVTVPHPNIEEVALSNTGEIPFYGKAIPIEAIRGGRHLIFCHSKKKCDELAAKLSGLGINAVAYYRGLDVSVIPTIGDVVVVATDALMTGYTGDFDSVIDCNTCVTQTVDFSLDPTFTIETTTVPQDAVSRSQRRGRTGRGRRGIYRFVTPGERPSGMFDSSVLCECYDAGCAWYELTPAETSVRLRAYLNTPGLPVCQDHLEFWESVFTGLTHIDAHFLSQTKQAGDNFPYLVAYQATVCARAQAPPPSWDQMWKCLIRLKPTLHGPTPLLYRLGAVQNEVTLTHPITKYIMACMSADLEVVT

IC50	SMILES
< 10 µM	O=C(O)Cc1cn(Cc2ccc(Oc3c(F)cccc3F)cc2)c2ccccc12 [Example 587]
> 50 µM	CCOC(=O)Cc1cn(Cc2ccc(Oc3cccc(F)c3)cc2)c2cc(-c3cccc(OC(C)=O)c3)ccc12 [Example 603]
10 to 50 µM	CCOC(=O)Cc1cn(Cc2ccc(Oc3ccc(C(F)(F)F)cc3)cc2)c2cc(-c3cccc(OC(C)=O)c3)ccc12 [Example 606]

The remaining lines, values behind:

SMILES	IC50
O=C(O)Cc1cn(Cc2ccc(Oc3cccc(Cl)c3Cl)cc2)c2ccccc12 [Example 588]	< 10 µM
O=C(O)Cc1cn(Cc2ccc(Oc3ccc(Cl)cc3Cl)cc2)c2ccccc12 [Example 589]	< 10 µM
O=C(O)Cc1cn(Cc2ccc(Oc3cc(Cl)ccc3Cl)cc2)c2ccccc12 [Example 590]	< 10 µM
CCOC(=O)Cc1cn(Cc2ccc(Oc3cccc(Cl)c3)cc2)c2cc(-c3cccc(OC(C)=O)c3)ccc12 [Example 601]	> 50 µM
CCOC(=O)Cc1cn(Cc2ccc(Oc3cccc(OC)c3)cc2)c2cc(-c3cccc(OC(C)=O)c3)ccc12 [Example 602]	10 to 50 µM
CCOC(=O)Cc1cn(Cc2ccc(Oc3cccc(OCC)c3)cc2)c2cc(-c3cccc(OC(C)=O)c3)ccc12 [Example 604]	> 50 µM
CCOC(=O)Cc1cn(Cc2ccc(Oc3ccc(Cl)cc3)cc2)c2cc(-c3cccc(OC(C)=O)c3)ccc12 [Example 605]	> 50 µM

Same assay, conditions: Table 23, compounds made using Scheme 30; read-out: IC50 Activity

IC50	SMILES
< 10 µM	O=C(O)Cc1cn(Cc2ccc(Oc3ccc(C(F)(F)F)cc3C(F)(F)F)cc2)c2ccccc12 [Example 591]
10 to 50 µM	O=C(O)Cc1cn(Cc2ccc(Oc3c(C(F)(F)F)cccc3C(F)(F)F)cc2)c2ccccc12 [Example 592]
< 10 µM	O=C(O)Cc1cn(Cc2cccc(Oc3ccc(F)cc3F)c2)c2ccccc12 [Example 593]
< 10 µM	O=C(O)Cc1cn(Cc2cccc(Oc3c(F)cccc3F)c2)c2ccccc12 [Example 594]
< 10 µM	O=C(O)Cc1cn(Cc2cccc(Oc3cccc(Cl)c3Cl)c2)c2ccccc12 [Example 595]
< 10 µM	O=C(O)Cc1cn(Cc2cccc(Oc3ccc(Cl)cc3Cl)c2)c2ccccc12 [Example 596]
< 10 µM	O=C(O)Cc1cn(Cc2cccc(Oc3ccc(C(F)(F)F)cc3C(F)(F)F)c2)c2ccccc12 [Example 597]
10 to 50 µM	O=C(O)Cc1cn(Cc2cccc(Oc3cc(Cl)ccc3Cl)c2)c2ccccc12 [Example 599]
10 to 50 µM	O=C(O)Cc1cn(Cc2cccc(Oc3c(Cl)cccc3Cl)c2)c2ccccc12 [Example 600]

Same assay, conditions: Table 25, compounds made using Scheme 32; read-out: IC50 Activity

IC50	SMILES
10 to 50 µM	CCOC(=O)Cc1cn(Cc2ccc(Oc3cccc(OC)c3)cc2)c2cc(-c3cc(N)cc(N)c3)ccc12 [Example 610]
< 10 µM	CCOC(=O)Cc1cn(Cc2ccc(Oc3cccc(Cl)c3)cc2)c2cc(-c3cc(N)cc(N)c3)ccc12 [Example 612]
10 to 50 µM	CCOC(=O)Cc1cn(Cc2ccc(Oc3ccc(Cl)cc3)cc2)c2cc(-c3cc(N)cc(N)c3)ccc12 [Example 613]

More lines, now with the values behind:

SMILES	IC50
CCOC(=O)Cc1cn(Cc2ccc(Oc3ccc(C(F)(F)F)cc3)cc2)c2cc(-c3cc(N)cc(N)c3)ccc12 [Example 608]	10 to 50 µM
CCOC(=O)Cc1cn(Cc2ccc(Oc3cccc(OCC)c3)cc2)c2cc(-c3cc(N)cc(N)c3)ccc12 [Example 609]	10 to 50 µM

Same assay, conditions: Table 26, compounds made using Scheme 33; read-out: IC50 Activity

IC50	SMILES
< 10 µM	O=C(O)Cc1cn(Cc2csc3ccc(Cl)cc23)c2cc(-c3ccccc3)ccc12 [Example 614]
10 to 50 µM	Nc1ccc(CO)c(-c2ccc3c(CC(=O)O)cn(Cc4csc5ccc(Cl)cc45)c3c2)n1 [Example 615]
> 50 µM	CCC(=O)Oc1cn(Cc2csc3ccc(Cl)cc23)c2cc(-c3ccccc3)ccc12 [Example 616]

Same assay, conditions: Table 28, compounds made using Scheme 35; read-out: IC50 Activity

IC50	SMILES
< 10 µM	CC(C)c1ccc(Cn2cc(CC(=O)O)c3ccc(-c4cc(N)cc(N)c4)cc32)cc1 [Example 619]

Same assay, conditions: Table 29, compounds made using Scheme 36; read-out: IC50 Activity

IC50	SMILES
> 50 µM	Nc1ncc(C(=O)O)c(-c2ccc3c(CC(=O)O)cn(Cc4csc5ccc(Cl)cc45)c3c2)n1 [Example 621]

Same assay, conditions: Table 31, compounds made using Schemes 38-45; read-out: IC50 Activity

IC50	SMILES
< 10 µM	Cc1ccccc1-c1ccc2c(CC(=O)O)cn(Cc3csc4ccc(Cl)cc34)c2c1 [Example 626]
< 10 µM	CCNc1nc(NCC)nc(-c2ccc3c(CC(=O)O)cn(Cc4csc5ccc(Cl)cc45)c3c2)n1 [Example 632]
10 to 50 µM	Nc1cc(N)nc(-c2ccc3c(CC(=O)O)cn(Cc4csc5ccc(Cl)cc45)c3c2)n1 [Example 635]
< 10 µM	Nc1nc(Cl)cc(-c2ccc3c(CC(=O)O)cn(Cc4csc5ccc(Cl)cc45)c3c2)n1 [Example 636]
10 to 50 µM	Nc1nc(-c2ccc3c(CC(=O)O)cn(Cc4csc5ccc(Cl)cc45)c3c2)c2nc[nH]c2n1 [Example 639]
< 10 µM	COC(=O)c1ccc(N)cc1-c1ccc2c(CC(=O)O)cn(Cc3csc4ccc(Cl)cc34)c2c1 [Example 642]
< 10 µM	CNc1cc(NC)cc(-c2ccc3c(CC(=O)O)cn(Cc4csc5ccc(Cl)cc45)c3c2)c1 [Example 646]
< 10 µM	CC(C)Nc1cc(NC(C)C)cc(-c2ccc3c(CC(=O)O)cn(Cc4csc5ccc(Cl)cc45)c3c2)c1 [Example 649]
< 10 µM	CC(C)Nc1cc(N)cc(-c2ccc3c(CC(=O)O)cn(Cc4csc5ccc(Cl)cc45)c3c2)c1 [Example 650]
> 50 µM	Nn1cc(-c2ccc3c(CC(=O)O)cn(Cc4csc5ccc(Cl)cc45)c3c2)c(=O)n(N)c1=O [Example 651]
10 to 50 µM	Nn1c(=O)[nH]cc(-c2ccc3c(CC(=O)O)cn(Cc4csc5ccc(Cl)cc45)c3c2)c1=O [Example 652]
10 to 50 µM	Nn1cc(-c2ccc3c(CC(=O)O)cn(Cc4csc5ccc(Cl)cc45)c3c2)c(=O)[nH]c1=O [Example 653]

Continued, compound first:

SMILES	IC50
O=C(O)Cc1cn(Cc2csc3ccc(Cl)cc23)c2cc(-c3cccc(O)c3)ccc12 [Example 625]	< 10 µM
Cc1ccc(N)cc1-c1ccc2c(CC(=O)O)cn(Cc3csc4ccc(Cl)cc34)c2c1 [Example 627]	< 10 µM
Cc1c(N)cc(N)cc1-c1ccc2c(CC(=O)O)cn(Cc3csc4ccc(Cl)cc34)c2c1 [Example 628]	< 10 µM
Nc1cc(-c2ccc3c(CC(=O)O)cn(Cc4csc5ccc(Cl)cc45)c3c2)nc(N)n1 [Example 629]	< 10 µM
Nc1ccnc(-c2ccc3c(CC(=O)O)cn(Cc4csc5ccc(Cl)cc45)c3c2)n1 [Example 630]	< 10 µM
Nc1nc(-c2ccc3c(CC(=O)O)cn(Cc4csc5ccc(Cl)cc45)c3c2)ncc1F [Example 633]	10 to 50 µM
Nc1nc(Cl)c(C=O)c(-c2ccc3c(CC(=O)O)cn(Cc4csc5ccc(Cl)cc45)c3c2)n1 [Example 637]	< 10 µM
Nc1cc(-c2ccc3c(CC(=O)O)cn(Cc4csc5ccc(Cl)cc45)c3c2)cc(N)n1 [Example 638]	10 to 50 µM
CNc1nc(-c2ccc3c(CC(=O)O)cn(Cc4csc5ccc(Cl)cc45)c3c2)nc2[nH]cnc12 [Example 640]	< 10 µM
NC(=O)c1ccc(N)cc1-c1ccc2c(CC(=O)O)cn(Cc3csc4ccc(Cl)cc34)c2c1 [Example 641]	10 to 50 µM
CNc1cc(N)cc(-c2ccc3c(CC(=O)O)cn(Cc4csc5ccc(Cl)cc45)c3c2)c1 [Example 647]	< 10 µM
CC(=O)Nc1cc(NC(C)=O)cc(-c2ccc3c(CC(=O)O)cn(Cc4csc5ccc(Cl)cc45)c3c2)c1 [Example 648]	< 10 µM

Same assay, conditions: Table 32, compounds made using Schemes 46-49; read-out: IC50 Activity

IC50	SMILES
10 to 50 µM	Nc1ncc(-c2ccc3c(CC(=O)O)cn(Cc4csc5ccc(Cl)cc45)c3c2)s1 [Example 656]
< 10 µM	CC(C)(C)OC(=O)Nc1ncc(-c2ccc3c(CC(=O)O)cn(Cc4csc5ccc(Cl)cc45)c3c2)s1 [Example 657]
10 to 50 µM	Nc1nnc(-c2ccc3c(CC(=O)O)cn(Cc4csc5ccc(Cl)cc45)c3c2)s1 [Example 660]
10 to 50 µM	NC(=O)c1sccc1-c1ccc2c(CC(=O)O)cn(Cc3csc4ccc(Cl)cc34)c2c1 [Example 661]

Continued, compound first:

SMILES	IC50
NC(=O)c1nc(N)sc1-c1ccc2c(CC(=O)O)cn(Cc3csc4ccc(Cl)cc34)c2c1 [Example 654]	< 10 µM
NC(=O)c1nc(N)sc1-c1ccc2c(CC(=O)O)cn(Cc3csc4ccc(Cl)cc34)c2c1 [Example 655]	10 to 50 µM
CC(C)(C)OC(=O)Nc1nnc(-c2ccc3c(CC(=O)O)cn(Cc4csc5ccc(Cl)cc45)c3c2)s1 [Example 658]	< 10 µM
CC(C)(C)OC(=O)Nc1nnc(-c2ccc3c(CC(=O)O)cn(Cc4csc5ccc(Cl)cc45)c3c2)s1 [Example 659]	10 to 50 µM
O=C(O)Cc1cn(Cc2csc3ccc(Cl)cc23)c2cc(-c3c[nH]c(=O)[nH]c3=O)ccc12 [Example 662]	10 to 50 µM
N#Cc1ccc2c(CC(=O)O)cn(Cc3csc4ccc(Cl)cc34)c2c1 [Example 663]	10 to 50 µM
CC(C)c1ccc(Cn2c(C#N)c(CC(=O)O)c3ccccc32)cc1 [Example 664]	10 to 50 µM
CC(C)c1ccc(Cn2c(C(N)=O)c(CC(=O)O)c3ccccc32)cc1 [Example 665]	10 to 50 µM

Same assay, conditions: Table 33, compounds made using Scheme 50; read-out: IC50 Activity

IC50	SMILES
10 to 50 µM	Nc1cc(-c2ccc3c(CC(=O)O)cn(Cc4csc5ccc(Cl)cc45)c3c2)ncn1 [Example 666]
10 to 50 µM	Nc1ccnc(-c2ccc3c(CC(=O)O)cn(Cc4csc5ccc(Cl)cc45)c3c2)n1 [Example 667]
10 to 50 µM	O=C(O)Cc1cn(Cc2csc3ccc(Cl)cc23)c2cc(-c3ccc4nc[nH]c4c3)ccc12 [Example 668]
10 to 50 µM	O=C(O)Cc1cn(Cc2csc3ccc(Cl)cc23)c2cc(-c3ccc4nn[nH]c4c3)ccc12 [Example 669]

Same assay, conditions: Table 34, compounds made using Schemes 51-52; read-out: IC50 Activity

IC50	SMILES
10 to 50 µM	Cc1cc([N+](=O)[O-])ccc1-n1cc(C(NC(=O)c2ccccc2)C(=O)O)c2ccccc21 (stereo not shown) [Example 670]
